Measured values reported in the supplement of paper PMC10307832.

Experiments:
Assay in all cases: relative viability (nuclei count vs DMSO), 5 days (fraction); higher = more cells survive
[1] = compound: COC1=CC=C(C=C1)CN2C=CC3=C2C=C(C=C3)C(=O)NO + COc1cc2c(Oc3ccc(NC(=O)C4(C(=O)Nc5ccc(F)cc5)CC4)cc3F)ccnc2cc1OCCCN1CCOCC1 [Foretinib] (partner 0.25 µM)
Summary of the method: (§1)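 Lung cancer cell lines in 1536-well plates got either a single drug or a fixed anchor-drug dose together with five library-drug doses (not always all listed) in √10 steps, by pin tool, on the day after seeding. Nuclei were counted after 5 days, and relative viability is the treated-to-vehicle ratio of nuclei counts. Values are medians of duplicate plates.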

[2] = compound: COC1=CC=C(C=C1)CN2C=CC3=C2C=C(C=C3)C(=O)NO + CC1(C)CCC(c2ccc(Cl)cc2)=C(CN2CCN(c3ccc(C(=O)NS(=O)(=O)c4ccc(N[C@H](CCN5CCOCC5)CSc5ccccc5)c(S(=O)(=O)C(F)(F)F)c4)cc3)CC2)C1 [Navitoclax] (partner 0.5 µM)
Summary of the method: as §1

Veliparib = compound: C[C@]1(c2nc3c(C(N)=O)cccc3[nH]2)CCCN1 [Veliparib]
Summary of the method: (§2)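 Viability here means nuclei in treated wells divided by nuclei in vehicle wells, reported as the median across plates. Only plates with control CV below 25% and at least one doubling passed. Lung cancer cell lines in 1536-well plates were exposed to five √10-spaced library-drug doses for 5 days and counted from 4× Hoechst images in MetaXpress.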

[3] = compound: COC1=CC=C(C=C1)CN2C=CC3=C2C=C(C=C3)C(=O)NO
Summary of the method: as §2

Cell Line | relative viability ([1]; first compound 0.08 µM) | relative viability ([1]; first compound 0.253 µM) | relative viability ([1]; first compound 0.8 µM) | relative viability ([1]; first compound 2.53 µM) | relative viability ([1]; first compound 8 µM) | relative viability ([2]; first compound 0.08 µM) | relative viability ([2]; first compound 0.253 µM) | relative viability ([2]; first compound 0.8 µM) | relative viability ([2]; first compound 2.53 µM) | relative viability ([2]; first compound 8 µM) | relative viability (Veliparib; 0.02 µM) | relative viability (Veliparib; 0.06325 µM) | relative viability (Veliparib; 0.2 µM) | relative viability (Veliparib; 0.6325 µM) | relative viability (Veliparib; 2 µM) | relative viability ([3]; 0.08 µM) | relative viability ([3]; 0.253 µM) | relative viability ([3]; 0.8 µM) | relative viability ([3]; 2.53 µM) | relative viability ([3]; 8 µM)
LC-2-ad | 0.904 | 0.918 | 0.899 | 0.906 | 0.816 | 0.421 | 0.427 | 0.561 | 0.527 | 0.552 | 0.608 | 0.944 | 0.977 | 0.941 | 0.867 | 0.937 | 0.977 | 1.04 | 0.976 | 0.963
LOU-NH91 | 0.899 | 0.941 | 0.915 | 0.908 | 0.861 | 0.419 | 0.677 | 0.739 | 0.725 | 0.576 | 0.941 | 0.893 | 1.01 | 0.931 | 0.992 | 0.717 | 0.95 | 1 | 0.991 | 0.944
NCI-H1623 | 0.649 | 0.82 | 0.866 | 0.859 | 0.766 |  |  |  |  |  | 0.762 | 0.883 | 0.959 | 1.01 | 0.984 | 0.812 | 0.975 | 0.999 | 0.982 | 0.897
NCI-H727 | 0.792 | 0.951 | 1.31 | 0.819 | 0.836 | 0.342 | 0.404 | 0.404 | 0.543 | 0.341 | 0.941 | 0.913 | 1.06 | 0.897 | 1 | 0.853 | 0.941 | 0.899 | 0.983 | 0.927
NCI-H2347 |  | 0.527 | 0.991 | 0.775 | 0.575 | 0.579 | 0.883 | 0.843 | 0.968 | 0.762 | 1.08 | 0.936 | 0.94 | 0.971 | 0.898 | 0.911 | 1.06 | 1.1 | 1.17 | 0.974
NCI-H1993 | 0.552 | 0.818 | 0.836 | 0.892 | 0.777 | 0.68 | 1.02 | 1.04 | 1.09 | 0.991 | 0.693 | 0.883 | 0.87 | 1.05 | 0.929 | 0.932 | 0.9 | 1.06 | 0.969 | 0.888
HCC-827 | 0.834 | 1.13 | 1.09 | 1.05 | 0.996 | 0.95 | 0.964 | 0.988 | 1.08 | 0.986 | 0.986 | 1.03 | 1 | 0.977 | 1.07 | 1.06 | 0.935 | 0.997 | 1.03 | 0.97
LCLC-103H | 0.68 | 0.846 | 0.832 | 0.789 | 0.761 |  |  |  |  |  | 1 | 0.893 | 0.999 | 1.01 | 0.969 | 1.03 | 1.01 | 1.01 | 0.984 | 0.973
NCI-H1792 |  |  |  |  |  | 0.574 | 0.55 | 0.481 | 0.646 | 0.601 | 0.825 | 0.694 | 0.943 | 0.966 | 0.718 | 0.952 | 0.883 | 0.99 | 0.766 | 0.795
SW 900 | 0.746 | 0.822 | 0.908 | 0.828 | 0.719 |  |  |  |  |  |  | 0.645 | 0.909 | 0.807 | 0.777 | 0.862 | 0.802 | 0.934 | 0.941 | 0.732
NCI-H522 |  |  |  |  |  |  |  |  |  |  | 0.947 | 0.958 | 0.912 | 1.07 | 1.04 |  | 0.946 | 0.968 | 0.869 | 0.793
NCI-H1563 | 0.762 | 0.897 | 0.888 | 0.928 | 0.892 |  |  |  |  |  | 0.851 | 0.953 | 0.956 | 0.966 | 1.05 | 0.843 | 1.09 | 0.955 | 0.968 | 0.908
NCI-H661 |  | 1.02 | 1.03 | 0.999 | 0.927 |  |  |  |  |  | 0.963 | 0.918 | 0.945 | 0.929 | 1 |  | 0.981 | 0.96 | 0.958 | 0.892
NCI-H650 | 1.04 | 1.01 | 1.04 | 1.02 | 0.936 |  |  |  |  |  | 0.765 | 0.799 | 0.834 | 0.783 | 0.731 | 0.903 | 0.834 | 0.888 | 0.949 | 0.891
NCI-H1648 |  |  |  |  |  |  |  |  |  |  | 1.08 | 0.94 | 0.738 | 0.944 | 0.81 | 1 | 0.875 | 1.01 | 0.991 | 0.735
HCC-44 |  |  |  |  |  | 0.891 | 0.976 | 0.872 | 0.883 | 0.989 | 0.971 | 0.798 | 0.958 | 1.01 | 0.94 | 0.916 | 0.923 | 1.03 | 1.05 | 1
NCI-H2342 | 0.997 | 0.986 | 0.978 | 0.956 | 1.02 |  |  |  |  |  | 0.966 | 0.968 | 0.94 | 0.873 | 0.979 | 0.946 | 0.973 | 0.992 | 0.997 | 0.827
NCI-H358 |  | 0.684 | 0.801 | 0.575 | 0.57 |  |  |  |  |  | 0.762 | 0.856 | 0.924 | 0.941 | 0.94 |  | 0.945 | 1.09 | 0.976 | 0.746
ABC-1 |  | 1.14 | 1.02 | 0.935 | 1.14 |  |  |  |  |  |  | 0.842 | 0.925 | 0.841 | 0.958 |  | 0.941 | 0.845 | 0.94 | 0.703
